US20260117173A1, “METHOD FOR MESENCHYMAL PHENOTYPE REVERSION IN PRIMARY HUMAN CORNEAL ENDOTHELIAL CELLS” (UNIVERSITÀ DEGLI STUDI DI MODENA E REGGIO EMILIA, priority 2022, published 2026)

How the values were obtained:
[1] = system: primary human corneal endothelial cells (HCEnCs); experiment: HCEnCs count upon detachment at confluency for progressive passages; format: cell-based; settings: CHIR 0.1-9 μM vs relative untreated control
Experimental: […] were cultured between 31 and 39° C. in 4-10% CO2, changing the growth medium every other day. The growth medium can be OptiMEM-I, MEM, F12, Human Endothelial SFM, 2-10% HyClone fetal bovine serum (FBS), 2-10 ng/ml epidermal growth factor (EGF), 5-50 μg/mL ascorbic acid, 40-300 mg/L calcium chloride, 0.01-0.2% chondroitin sulphate, and penicillin/streptomycin. Upon confluency, […] were rinsed in DPBS and passaged at a ratio of 1:2 or 1:3 with Trypsin or other proteolytic enzymes for 10-30 min at 31-39° C. in 4-10% CO2. Sub-confluent cultures were harvested approximately 1 day after plating.

[2] = system: corneal endothelial derived cell line, B4G12; settings: B4G12 cell line (Wang et al., 2022); cited from earlier work
[3] = system: primary human corneal endothelial cells (HCEnCs); experiment: Cell cycle analysis by FACS (propidium iodide) of sub-confluent HCEnCs; format: cell-based; settings: sub-confluent HCEnCs P5-P6-P8, CHIR 0.1-9 μM vs untreated
Experimental: The cell cycle was studied by staining sub-confluent cultures of […] with Propidium Iodide (PI; Sigma-Aldrich). […] from cell culture were washed with DPBS and incubated for 1 h at 4° C. in the dark with 250 μL of a PBS solution composed by PI 50 μg/mL, Triton X-100 (Bio-Rad, USA) at 0.1%. Cells were then analysed using BD FACSCanto II (BD BIOSCIENCES; San Jose, CA USA). For each sample, 20,000 events were considered for the analysis to ensure statistical relevance and results were analysed with a ModFit 3.0 software.

[4] = system: primary human corneal endothelial cells (HCEnCs); experiment: Immunofluorescence of ZO-1 and α-SMA markers in primary HCEnCs; format: cell-based
Experimental: (§1) HCEnCs were cultured between 31 and 39° C. in 4-10% CO2, changing the growth medium every other day. The growth medium can be OptiMEM-I, MEM, F12, Human Endothelial SFM, 2-10% HyClone fetal bovine serum (FBS), 2-10 ng/ml epidermal growth factor (EGF), 5-50 μg/mL ascorbic acid, 40-300 mg/L calcium chloride, 0.01-0.2% chondroitin sulphate, and penicillin/streptomycin. Upon confluency, HCEnCs were rinsed in DPBS and passaged at a ratio of 1:2 or 1:3 with Trypsin or other proteolytic enzymes for 10-30 min at 31-39° C. in 4-10% CO2. Sub-confluent cultures were harvested approximately 1 day after plating.
(§2) Before or whenever primary HCEnCs encountered a morphological variation, the GSK inhibitor CHIR99021 (also defined as 6-[[2-[[4-(2,4-Dichlorophenyl)-5-(5-methyl-1H-imidazol-2-yl)-2-pyrimidinyl]amino]ethyl]amino]-3-pyridinecarbonitrile) was prepared and added to the culture media at a concentration range of 0.1-10 μM. Multiple solvents and methods have been used to dissolve CHIR stock solution. Ultrasonic were applied for CHIR dilutions in sodium carboxymethyl cellulose (CMC-Na) in saline water and 20% Sulfobutylether-β-Cyclodextrin (SBE-β-CD), adjusted to pH 3-6, with 1 N acetic acid. CHIR can be also diluted in dimethyl sulfoxide (DMSO) at 70-100% (v/v), with a solution composed of 10% DMSO 40% PEG300 5% Tween-80 in saline water or composed of 10% DMSO and 20% SBE-β-CD in saline water. Once obtained a clear solution, the stock solution was aliquoted and stored at-20/−80° C. until use.
(§3) Immunofluorescence staining was performed on primary cultured HCEnCs after fixation in 3% PFA 15 min at room temperature (RT). Triton X-100 used at 1% for 10 min at RT allowed cell permeabilization and a solution of bovine serum albumin (BSA) 2%, FBS 2%, Triton X-100 at 0.01% in PBS was used for 30 min at 37° C. to block the non-specific binding sites. Primary and secondary antibodies were incubated for 1 h at 37° C. while nuclei were counterstained with DAPI at RT for 5 minutes before mounting the glass coverslips using amounting medium such as DAKO. Primary antibodies used herein are listed in Table 2 while secondary antibodies used are: Alexa Fluor 488 anti-rabbit, 1:2,000, and Alexa Fluor 568 anti-mouse, 1:1,000 (Thermo Fisher Scientific). Images were obtained with a confocal microscope (LSM900 Airyscan—Carl Zeiss).

[5] = system: primary human corneal endothelial cells (HCEnCs); experiment: Phase-contrast morphology of primary HCEnCs cultures treated with CHIR; format: cell-based
Experimental: Human corneas tissues (obtained after informed consent to the eye bank and the use was approved by the ethical committee) were preserved in media for tissue preservation as for example Eusol, OptiSOL or others and used within approximately 15 days from death; a list of detail for some corneas used and relative experiments is shown in Table 1. HCEnCs were isolated through Descemet's stripping and digestion with Collagenase A (Roche) for 1-16 h at 30-39° C. After 5-10 minutes in Trypsin or other proteolytic enzymes at 37° C., HCEnCs were pelleted at 1,200 rpm for 3 min and plated in FNC Coating mix treated wells.
as §1, §2

[6] = system: primary human corneal endothelial cells (HCEnCs); experiment: Immunofluorescence of ki67 in sub-confluent HCEnCs; format: cell-based
Experimental: as §3, with “HCEnCs” left out, “Airyscan-Carl” for “Airyscan—Carl”

[7] = P1, CHIR at 0.1-9 μM, vs untreated (ctr)
[8] = P1, CHIR at a concentration >10 μM

In the case of `Cc1cnc(-c2cnc(NCCNc3ccc(C#N)cn3)nc2-c2ccc(Cl)cc2Cl)[nH]1` [CHIR, 6-[[2-[[4-(2,4-Dichlorophenyl)-5-(5-methyl-1H-imidazol-2-yl)-2-pyrimidinyl]amino]ethyl]amino]-3-pyridinecarbonitrile], the “number of HCEnCs at confluency for each passage” value [1] is listed as “constantly lower”, the cell proliferation [2] is listed as “concomitant enhancement in cell proliferation” and the mesenchymal conversion [2] is listed as “prevent mesenchymal conversion (but not to reverse it)”. For the same compound, the “percentage of cells at G2/M” value [3] was “reduced the percentage of cells at G2/M”, the “percentage of cells in G0/G1 phase of cell cycle” value [3] was “enhanced the percentage of cells in G0/G1 phase” and the “percentage of α-SMA expressing cells” value ([4]; P1, CHIR 0.1-9 μM, untreated approx. 40%) was ~17%. For the same compound, the ZO-1 expression [4, 7] was “restored sealed ZO-1 pattern of expression”, the α-SMA expression [4, 7] was “reduced levels of α-SMA” and the ZO-1 expression [4, 8] was “disappearance of ZO-1 expression”. The “endothelial to mesenchymal transition (EnMT)” value [4, 8] was “accelerated the process of endothelial to mesenchymal transition”, the α-SMA expression [4, 8] was “highly expressed in every cell” and the ZO-1 expression ([4]; P3, CHIR 0.1-9 μM) was “restores ZO-1 pattern of tight junctions”. For the same compound, the α-SMA expression ([4]; P3, CHIR 0.1-9 μM) was “drastically reduces expression of α-SMA”, the “reversion of elongated morphology” value ([5]; CHIR 0.1-9 μM added at a later passage, P6 confluence) was “able to reverse the elongated morphology” and the “reversion of cell phenotype / morphology” value ([5]; CHIR 0.1-9 μM applied to HCEnCs already elongated in culture (P3)) was “restoring a polygonal morphology”. For the same compound, the “reversion of elongated phenotype” value ([5]; CHIR 0.1-9 μM, progressive passages, at least up to P8) was “reversing the elongated phenotype”, the HCEnCs morphology ([5]; P1, CHIR at 0.1-9 μM, vs untreated HCEnCs (ctr)) was “restored the polygonal morphology” and the HCEnCs morphology ([5]; P1, CHIR at concentrations >10 μM, vs untreated cells) was “exacerbated elongated morphology”. For the same compound, the HCEnCs morphology ([5]; P3, CHIR 0.1-9 μM vs untreated (ctr)) was “untreated cells (ctr) appeared more elongated than CHIR treated HCEnCs”, the cell proliferation rate ([6]; primary HCEnCs, evaluated with different assays (FACS, count, ki67)) was “does not enhance cell proliferation rate” and the “ki67 protein expressing cells” value ([6]; sub-confluent HCEnCs P5, Strain 3, CHIR 0.1-9 μM vs untreated) was “equal”. For the same compound, the “ki67 protein expressing cells” value ([6]; sub-confluent HCEnCs P5, Strain 4, p<0.05, CHIR 0.1-9 μM vs untreated) was “significant reduction”.
